In PubChem BioAssay (NCI):
Values joined by “and” are separate entries in the source; they are usually repeats but may differ in a detail not shown here. Equal entries are not always repeated.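 Method: 48-hour compound exposure of cells in 96-well plates, five concentrations, linear interpolation of endpoints. GI50 marks 50% less growth. TGI marks complete inhibition of growth.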

What was measured:
Test in all cases: NCI tumour cell line growth inhibition, 48 h
SF-268 CNS = tested on: SF-268 CNS
HOP-18 NSCLC = tested on: HOP-18 NSCLC
HCT-116 colon = tested on: HCT-116 colon
MOLT-4 leukemia = tested on: MOLT-4 leukemia
SK-MEL-5 melanoma = tested on: SK-MEL-5 melanoma
PC-3 prostate = tested on: PC-3 prostate
DU-145 prostate = tested on: DU-145 prostate
P388 leukemia = tested on: P388 leukemia
OVCAR-8 ovarian = tested on: OVCAR-8 ovarian
TK-10 renal = tested on: TK-10 renal
OVCAR-4 ovarian = tested on: OVCAR-4 ovarian
SN12C renal = tested on: SN12C renal
IGROV1 ovarian = tested on: IGROV1 ovarian
NCI-H226 lung = tested on: NCI-H226 lung
MDA-N = tested on: MDA-N
SW-620 colon = tested on: SW-620 colon
RPMI-8226 leukemia = tested on: RPMI-8226 leukemia
OVCAR-3 ovarian = tested on: OVCAR-3 ovarian
HCC-2998 colon = tested on: HCC-2998 colon
K-562 leukemia = tested on: K-562 leukemia
HOP-92 NSCLC = tested on: HOP-92 NSCLC
HL-60(TB) leukemia = tested on: HL-60(TB) leukemia
ACHN renal = tested on: ACHN renal
SNB-78 CNS = tested on: SNB-78 CNS
HS 578T breast = tested on: HS 578T breast
SK-OV-3 ovarian = tested on: SK-OV-3 ovarian
MDA-MB-435 = tested on: MDA-MB-435
P388/ADR leukemia = tested on: P388/ADR leukemia
A498 renal = tested on: A498 renal
UACC-62 melanoma = tested on: UACC-62 melanoma
HCT-15 colon = tested on: HCT-15 colon
KM20L2 colon = tested on: KM20L2 colon
DMS 273 small cell lung = tested on: DMS 273 small cell lung
NCI/ADR-RES ovarian = tested on: NCI/ADR-RES ovarian
DLD-1 colon = tested on: DLD-1 colon
HOP-62 NSCLC = tested on: HOP-62 NSCLC
SNB-19 CNS = tested on: SNB-19 CNS
DMS 114 small cell lung = tested on: DMS 114 small cell lung
UO-31 renal = tested on: UO-31 renal
CCRF-CEM leukemia = tested on: CCRF-CEM leukemia
LXFL 529 NSCLC = tested on: LXFL 529 NSCLC
SF-295 CNS = tested on: SF-295 CNS
786-0 renal = tested on: 786-0 renal
EKVX NSCLC = tested on: EKVX NSCLC
A549 NSCLC = tested on: A549 NSCLC
NCI-H522 lung = tested on: NCI-H522 lung
RXF 393 renal = tested on: RXF 393 renal
LOX IMVI melanoma = tested on: LOX IMVI melanoma
M19-MEL melanoma = tested on: M19-MEL melanoma
HT29 colon = tested on: HT29 colon
OVCAR-5 ovarian = tested on: OVCAR-5 ovarian
UACC-257 melanoma = tested on: UACC-257 melanoma
XF 498 CNS = tested on: XF 498 CNS

COC1=C(N)C(=O)c2nc(-c3nc(C(=O)O)c(C)c(-c4ccc(OC)c(OC)c4O)c3N)ccc2C1=O
GI50 (SF-268 CNS): 1.86 nM and 0.781 nM and < 10 nM | TGI (SF-268 CNS): 9.04 nM and 27.6 nM and < 10 nM | TGI (HOP-18 NSCLC): 39.5 nM | GI50 (HCT-116 colon): 13.9 nM and 3.57 nM | TGI (MOLT-4 leukemia): 80.5 nM and 44.5 nM and < 16.7 nM | GI50 (SK-MEL-5 melanoma): 1.16 nM and 10.4 nM | GI50 (PC-3 prostate): 29.8 nM | TGI (PC-3 prostate): 203 nM and 29.2 nM and 22.8 nM | TGI (DU-145 prostate): 40.9 nM and 19.3 nM | TGI (P388 leukemia): 473 nM | TGI (OVCAR-8 ovarian): 2.26 nM and 22 nM and 19.4 nM | TGI (TK-10 renal): 7.95 nM and 70.6 nM | TGI (OVCAR-4 ovarian): 18.3 nM and 41.6 nM and 51.5 nM | GI50 (SN12C renal): 1.75 nM and 14.9 nM | TGI (SN12C renal): 8.84 nM and 16.1 nM | GI50 (IGROV1 ovarian): 2.37 nM and 22.3 nM and 18.3 nM | TGI (IGROV1 ovarian): 19.6 nM and 125 nM and 58.9 nM | GI50 (NCI-H226 lung): 1.26 nM and 3.19 nM | GI50 (MDA-N): 11.7 nM | TGI (MDA-N): 26.9 nM and 15.3 nM | GI50 (SW-620 colon): 1.24 nM and 6.53 nM | TGI (SW-620 colon): 4.24 nM and 26.8 nM and 18.1 nM | GI50 (RPMI-8226 leukemia): 2.15 nM and 9.24 nM and < 10 nM | TGI (RPMI-8226 leukemia): 6.47 nM and 29.8 nM and 22.5 nM | GI50 (OVCAR-3 ovarian): 28.3 nM and 16.9 nM | TGI (OVCAR-3 ovarian): 39.5 nM | GI50 (HCC-2998 colon): 1.21 nM and 4.68 nM | GI50 (K-562 leukemia): 23.7 nM and 11.2 nM and < 10 nM | TGI (K-562 leukemia): 277 nM and 102 nM and 28.1 nM | GI50 (HOP-92 NSCLC): 6.66 nM and < 28.4 nM | TGI (HOP-92 NSCLC): 44.2 nM and 428 nM | TGI (HL-60(TB) leukemia): 4.99 nM and 20.4 nM | TGI (ACHN renal): 3.76 nM and 26.3 nM and < 10 nM | TGI (SNB-78 CNS): 32.4 nM and 99.6 nM | TGI (HS 578T breast): 41.2 nM | TGI (SK-OV-3 ovarian): 27.2 nM and 17.4 nM | GI50 (MDA-MB-435): 26.6 nM and 10.4 nM | TGI (P388/ADR leukemia): 402 nM | GI50 (A498 renal): 1.28 nM | GI50 (UACC-62 melanoma): 1.03 nM and 0.879 nM and < 10 nM | GI50 (HCT-15 colon): 1.44 nM and 8.32 nM and < 10 nM | TGI (KM20L2 colon): 1120 nM and 184 nM | TGI (DMS 273 small cell lung): 19.4 nM | GI50 (NCI/ADR-RES ovarian): 1.21 nM and 8.09 nM | TGI (NCI/ADR-RES ovarian): 15.1 nM and 94 nM and 16.9 nM | TGI (DLD-1 colon): 52.4 nM | TGI (HOP-62 NSCLC): 40.7 nM and < 10 nM | TGI (SNB-19 CNS): 3.54 nM and 22.8 nM and < 11 nM | TGI (DMS 114 small cell lung): 11.8 nM | GI50 (UO-31 renal): < 10 nM | TGI (UO-31 renal): 20 nM and 17.6 nM | GI50 (CCRF-CEM leukemia): 20.6 nM and 3.86 nM | TGI (CCRF-CEM leukemia): 39.8 nM and 28.6 nM | TGI (LXFL 529 NSCLC): 20.6 nM | TGI (SF-295 CNS): 3.23 nM and 23.6 nM and 13.6 nM | TGI (786-0 renal): 2.61 nM and 21.7 nM and < 10 nM | GI50 (EKVX NSCLC): 9.38 nM and 21.5 nM | TGI (EKVX NSCLC): 34.9 nM and 89.6 nM | GI50 (A549 NSCLC): 1.35 nM and 8.94 nM | TGI (A549 NSCLC): 4.28 nM and 32.5 nM and 21.6 nM | GI50 (NCI-H522 lung): 0.527 nM and 3.36 nM and < 10 nM | TGI (NCI-H522 lung): 21.4 nM and < 11.1 nM | TGI (RXF 393 renal): 15 nM [middle of 4 runs] | GI50 (LOX IMVI melanoma): 24 nM and 7.55 nM | TGI (M19-MEL melanoma): 22.4 nM and 23.4 nM | TGI (HT29 colon): 33.7 nM and 34.2 nM and 66.3 nM | GI50 (OVCAR-5 ovarian): 3.32 nM and 3.52 nM and 14.3 nM | GI50 (UACC-257 melanoma): 3.21 nM and 12.2 nM and 22.4 nM | TGI (XF 498 CNS): 17.9 nM
